The results in this text go back to BindingDB's records for doi:10.1016/s0960-894x(00)00062-7 (University of Bristol, 2000).

The nature of the assay: Inhibition of 3 nM [3H]clonidine binding to rat kidney membrane imidazoline receptor I-1 in presence of rauwolscine.

On to `N#CSc1ccc2oc(C3=NCCN3)cc2c1`, for which the IC50 turned out to be 8.1 µM.

A word on the IC50: it is the midpoint of a concentration-inhibition curve.
